Experiments:
Type in all cases: in vivo, mouse
[1] = system: WAT of mice; assay: β3-adrenergic agonist treatment of Ctrl and LSD1+/− mice, qRT-PCR transcript levels in WAT
Method: All mice were housed in the pathogen-free barrier facility of the University Medical Center Freiburg in accordance with institutional guidelines and approved by the regional board. Mice were maintained in a temperature- and humidity-controlled animal facility with a 12-hour light/dark cycle, free access to water, and a standard rodent chow (Kliba, breeding, 3807). The high-fat diet (HFD) study was carried out with a chow containing 4.056 kcal/kg (fat: 1.600 kcal/kg and sucrose: 1.600 kcal/kg; Research Diets). HFD was given to mice at 5 weeks of age. Mice were analysed at 25 weeks of age. For cold exposure experiments, mice were maintained at 10° C. with a 12 hour light/dark cycle, free access to water, and a standard rodent chow. Animals were killed by cervical dislocation, tissues were immediately collected, weighted, frozen in liquid nitrogen or processed for further analyses. Nomenclature for dissected adipose depots was used according to Seale et al.^17. Epididymidal WAT (epWAT): prominent bilateral intra-abdominal visceral depots in male mice attached to the epididymis. Inguinal WAT (ingWAT): bilateral superficial inguinal depots between the skin and muscle fascia just anterior to the lower segment of the hind limbs. Perimuscular WAT (pmWAT): depots located on the upper part of the quadriceps muscle. Retroperitoneal WAT (rpWAT): bilateral depots in abdominal cavity behind the peritoneum on the dorsal side of the kidney. Interscapular BAT (BAT): most prominent depot of brown adipocytes in rodents, found between the scapulae. In vivo experiments including food consumption, serum analysis, glucose tolerance and insulin sensitivity tests, temperature measurements, body lean and fat contents, and energy expenditure were described^48. CL316,243 (Sigma-Aldrich) was injected intraperitoneally at 1 mg/kg.
RNA was isolated with TRIzol Reagent (Invitrogen). […] Quantitative RT-PCR was performed using the Abgene SYBR Green PCR kit (Invitrogen) according to the supplier's protocol. Data were analysed using the standard curve method^53. […]

[2] = system: LSD1; assay: β3-adrenergic agonist treatment of mice, Western blot of LSD1 in WAT; conditions: wild-type mice, CL316,243 injected intraperitoneally at 1 mg/kg vs vehicle
Method: (§1) All mice were housed in the pathogen-free barrier facility of the University Medical Center Freiburg in accordance with institutional guidelines and approved by the regional board. Mice were maintained in a temperature- and humidity-controlled animal facility with a 12-hour light/dark cycle, free access to water, and a standard rodent chow (Kliba, breeding, 3807). The high-fat diet (HFD) study was carried out with a chow containing 4.056 kcal/kg (fat: 1.600 kcal/kg and sucrose: 1.600 kcal/kg; Research Diets). HFD was given to mice at 5 weeks of age. Mice were analysed at 25 weeks of age. For cold exposure experiments, mice were maintained at 10° C. with a 12 hour light/dark cycle, free access to water, and a standard rodent chow. Animals were killed by cervical dislocation, tissues were immediately collected, weighted, frozen in liquid nitrogen or processed for further analyses. Nomenclature for dissected adipose depots was used according to Seale et al.^17. […]
Homogenates were separated in 10% polyacrylamide gels and blotted to Hybond nitrocellulose membranes (GE Healthcare). […] Secondary antibodies conjugated to horseradish peroxidase (GE Healthcare) were detected using an enhanced chemiluminescence detection system (GE Healthcare). Protein levels were quantified using the Chemi Capt software (Peqlab).

[3] = system: WAT of mice; assay: β3-adrenergic agonist treatment of mice, H&E staining of white adipose tissue (beige fat islets)
Method: as §1, with “al.^17. Epididymidal WAT (epWAT): prominent bilateral intra-abdominal visceral depots in male mice attached to the epididymis. Inguinal WAT (ingWAT): bilateral superficial inguinal depots between the skin and muscle fascia just anterior to the lower segment of the hind limbs. Perimuscular WAT (pmWAT): depots located on the upper part of the quadriceps muscle.” for “al.^17.”

C[C@H](Cc1ccc2c(c1)OC(C(=O)[O-])(C(=O)[O-])O2)NC[C@H](O)c1cccc(Cl)c1.[Na+].[Na+] [CL316,243]
expression of white fat-selective and adipogenic markers ([1]; Ctrl and LSD1+/− mice, vs vehicle): not significantly affected
adrenergic induction of Cidea, Prdm16, Pgc-1α, Ucp1 and beige fat-selective markers in WAT ([1]; LSD1+/− mice): impaired
expression of Cidea, Prdm16, Pgc-1α, and Ucp1 and of beige fat-selective markers in WAT ([1]; control mice, vs vehicle): significantly increases
LSD1 protein levels in WAT [2]: increased
clusters of beige fat cells in WAT ([3]; LSD1+/− mice compared to control mice, both treated with CL316,243): fewer clusters of beige fat cells
beige adipocyte formation in WAT ([3]; wild-type mice, CL316,243 injected intraperitoneally at 1 mg/kg vs vehicle): appearance of multilocular beige adipocytes

Source: patent US10299467B2, “Animal model for type 2 diabetes and obesity” (Universitaetsklinikum Freiburg, priority 2012, dated 2019)
